The test system of this data set is production of advanced glycation endproducts (glycation of bovine serum albumin (BSA)). As to the kind of experiment: In vitro inhibition of production of advanced glycation endproducts (BSA/fructose/glucose culture, fluorescence). The class given is biochemical. Conditions: for Inhibition (%) of production of advanced glycation endproducts Inhibition: cultured at 37 °C for 14 days. On the procedure: For the in vitro analysis of the inhibitory effect cf each cf the leaf and stem extract of Aster koraiensis, the root extract of Aster koraiensis, the flower extract of Aster koraiensis, and the fractions cf each of the extracts, on the production cf advanced glycation endproducts, bovine serum albumin (hereinafter, referred to as BSA; Sigma, USA)) was selected as a protein source. BSA was added to 50 mM phosphate buffer (pH 7.4) to a concentration of 10 mg/mℓ. As a sugar source, a mixture of 0.2 M fructose and 0.2 M glucose was used. The fructose/glucose mixture was added to the prepared BSA solution. As test groups, each of the leaf and stem extract cf Aster koraiensis, the root extract cf Aster koraiensis, the flower extract of Aster koraiensis, and the hexane fraction, ethyl acetate fraction, butanol fraction and water fraction of each cf the extracts, was dissolved in distilled water. Then, each of the solutions was added to the BSA/sugar mixture and cultured at 37 °C for 14 days.
At this time, 0.02% sodium azide was added as an antibacterial agent. A control group was a culture of the BSA/sugar mixture, and the blank of each cf the test groups and the control group was not cultured after their preparation. Meanwhile, as a positive control for use as an index to determine the superiority cf the inventive material, aminoguanidine was used. Four samples for each of the cultures were prepared to minimize errors. After 14 days, the content of advanced glycation endproducts (AGEs) in each of the cultures was analyzed, and the analysis results were recorded. […] The amount cf advanced glycation endproducts having such properties was measured with a spectrofluorometer (excitation: 350 nm, and emission: 450 nm) to analyze the inhibition of the production of advanced glycation endproducts. […]
Each of the root extract and flower extract of Aster koraiensis, prepared in Example, were prepared into solutions having concentrations cf 10 µg/mℓ, 25 µg/mℓ and 50 µg/mℓ, respectively. […] After 14 days, the amount of advanced glycation endproducts produced in each of the cultures was measured with a spectrcfluorometer (excitation: 350 nm, and emission: 450 nm), and the measurement results are shown in Table 1 and FIG. 2.
The inhibition of the production of advanced glycation endproducts is calculated according to the following equation: Inhibition (%) of production = 100-(fluorescentintensityofsamplegroupfluorescentintensityofblankofsamplegroup)/(fluorenscentintensityofcontrolgroup-fluorescentintensityofblankofcontrolgroup)x100 [formula] […]
After 14 days, the amount cf advanced glycation endproducts produced in each cf the cultures was measured with a spectrcfluorometer (excitation: 350 nm, and emission: 450 nm).

These results are taken from patent publication EP2131850B1, “EXTRACTS OF ASTER KORAIENSIS, AND PHARMACEUTICAL COMPOSITION AND FUNCTIONAL FOOD COMPRISING THE SAME” (Korea Institute of Oriental Medicine, priority 2007, dated 2008).

Values after ≈ are worked out from the molar mass of the structure shown.

In the case of `N=C(N)NN` [Aminoguanidine], the “Inhibition (%) of production of advanced glycation endproducts Inhibition” value runs as follows: (concentration 18.5 µg/mℓ) 12.70 ± 6.12%; (concentration 55.5 µg/mℓ) 39.46 ± 1.91%; (concentration 74.0 µg/mℓ) 50.68 ± 0.51%. In addition, the IC50 inhibitory concentration (production of advanced glycation endproducts, BSA/sugar mixture, 14 days) is 72.12 µg/mL (≈ 973 µM).
